# Source: ChEMBL document CHEMBL3217528, “Bicyclic imidazole-4-one derivatives: a new class of antagonists for the orphan G protein-coupled receptors GPR18 and GPR55” (Medchemcomm, 2014)
# Active and inactive are the calls of the source. No cut-off for these calls is given here.
# Legend:
# [1] = biological target: T1, G-protein coupled receptor 55 (Homo sapiens, UniProt Q9Y2T6); assay: Agonist activity at human GPR55 expressed in HEK293 cells assessed as increase in oscillation Ca2+ transients by fura-2 dye based fluorescence analysis; type: functional, cell-based
# [2] = biological target: Cannabinoid receptor 1 (Rattus norvegicus) (UniProt P20272); assay: Intrinsic activity at CB1 receptor in rat brain cortical membranes assessed as stimulation of [35S]GTPgammaS binding at 10 uM by liquid scintillation counting method relative to CP55,940; type: functional, cell membranes
# Cannabinoid receptor 2 [3] = biological target: T2, Cannabinoid receptor 2 (Homo sapiens, UniProt P34972); assay: Agonist activity at human recombinant CB2 receptor expressed in CHO-K1 cell membranes assessed effect on forskolin-induced cAMP accumulation at 10 uM; type: functional, cell-based
# Cannabinoid receptor 1 [4] = biological target: T3, Cannabinoid receptor 1 (Homo sapiens, UniProt P21554); assay: Agonist activity at human recombinant CB1 receptor expressed in CHO-K1 cell membranes assessed effect on forskolin-induced cAMP accumulation at 10 uM; type: functional, cell-based
# Cannabinoid receptor 1 [5] = biological target: T3, Cannabinoid receptor 1; assay: Intrinsic activity at human recombinant CB1 receptor expressed in HEK293 cell membranes assessed as stimulation of [35S]GTPgammaS binding at 10 uM by liquid scintillation counting method relative to CP55,940; type: functional
# [6] = biological target: Cannabinoid receptor 1 (Rattus norvegicus) (UniProt P20272); assay: Displacement of [3H]CP55,940 from CB1 receptor in rat brain cortical membranes at 10 uM; type: cell membranes
# Cannabinoid receptor 2 [7] = biological target: T2, Cannabinoid receptor 2; assay: Displacement of [3H]CP55,940 from human recombinant CB2 receptor expressed in HEK293 cells at 10 uM; type: cell-based
# [8] = biological target: T1, G-protein coupled receptor 55; assay: Agonist activity at human GPR55 expressed in CHO cells assessed as induction of LPI-induced beta-arrestin recruitment by beta-galactosidase enzyme fragment complementation method relative to LPI; type: cell-based; design: concentration or dose not given beside the values
# [9] = Displacement of [3H]diazepam from GABAA receptor in rat brain cortical membranes; type: cell membranes
# [10] = biological target: T4, N-arachidonyl glycine receptor (Homo sapiens, UniProt Q14330); assay: Antagonist activity against human GPR18 expressed in CHO cells assessed as reduction in delta9-THC-induced beta-arrestin recruitment by beta-galactosidase enzyme fragment complementation method; type: cell-based
# T4 sequence (Q14330 whole entry): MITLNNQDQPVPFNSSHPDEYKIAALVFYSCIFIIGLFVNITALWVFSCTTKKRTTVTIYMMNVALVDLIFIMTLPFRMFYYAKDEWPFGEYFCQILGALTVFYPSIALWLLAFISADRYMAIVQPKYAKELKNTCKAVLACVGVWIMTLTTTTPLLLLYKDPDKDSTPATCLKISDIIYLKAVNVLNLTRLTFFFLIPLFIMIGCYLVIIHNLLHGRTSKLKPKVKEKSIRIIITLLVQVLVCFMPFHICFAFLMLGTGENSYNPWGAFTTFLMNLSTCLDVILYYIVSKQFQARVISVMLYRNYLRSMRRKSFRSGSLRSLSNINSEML
# [11] = biological target: T5, N-arachidonyl glycine receptor (Homo sapiens) (UniProt Q14330); assay: Antagonist activity against human GPR18 expressed in CHO cells assessed as reduction in delta9-THC-induced beta-arrestin recruitment at 10 uM by beta-galactosidase enzyme fragment complementation method; type: cell-based
# T5 sequence (whole entry): T4 sequence (Q14330 whole entry)
# [12] = biological target: T1, G-protein coupled receptor 55; assay: Antagonist activity against human GPR55 expressed in CHO cells assessed as reduction in LPI-induced beta-arrestin recruitment by beta-galactosidase enzyme fragment complementation method; type: cell-based
# Cannabinoid receptor 2 [13] = biological target: T2, Cannabinoid receptor 2; assay: Displacement of [3H]CP55,940 from human recombinant CB2 receptor expressed in HEK293 cells; type: cell-based
# [14] = biological target: T5, N-arachidonyl glycine receptor (Homo sapiens); assay: Agonist activity at human GPR18 expressed in CHO cells assessed as induction of beta-arrestin recruitment by beta-galactosidase enzyme fragment complementation method relative to delta9-THC; type: cell-based; design: concentration or dose not given beside the values
# [15] = biological target: T1, G-protein coupled receptor 55; assay: Antagonist activity against human GPR55 expressed in CHO cells assessed as reduction in LPI-induced beta-arrestin recruitment at 10 uM by beta-galactosidase enzyme fragment complementation method; type: cell-based
# Cannabinoid receptor 1 [16] = biological target: T3, Cannabinoid receptor 1; assay: Displacement of [3H]CP55,940 from human recombinant CB1 receptor expressed in CHO-K1 cells at 10 uM; type: cell-based
# Rattus norvegicus = species: Rattus norvegicus; assay: Displacement of [3H]diazepam from GABAA receptor in rat brain cortical membranes at 10 uM; type: cell membranes
# Cannabinoid receptor 1 [17] = biological target: T3, Cannabinoid receptor 1; assay: Displacement of [3H]CP55,940 from human recombinant CB1 receptor expressed in CHO-K1 cells; type: cell-based
# Cannabinoid receptor 1 [18] = biological target: Cannabinoid receptor 1 (Rattus norvegicus, UniProt P20272); assay: Displacement of [3H]CP55,940 from CB1 receptor in rat brain cortical membranes; type: cell membranes
# [19] = biological target: T1, G-protein coupled receptor 55; assay: Inverse agonist activity against human GPR55 expressed in CHO cells assessed as reduction in LPI-induced beta-arrestin recruitment at 30 uM by beta-galactosidase enzyme fragment complementation method; type: cell-based
# [20] = biological target: T1, G-protein coupled receptor 55; assay: Allosteric antagonist activity against human GPR55 expressed in CHO cells assessed as induction of rightward shift of concentration response curve of LPI-induced beta-arrestin recruitment at 10 uM by beta-galactosidase enzyme fragment complementation method; type: cell-based
# [21] = biological target: T4, N-arachidonyl glycine receptor; assay: Agonist activity at human GPR18 expressed in CHO cells assessed as induction of beta-arrestin recruitment by beta-galactosidase enzyme fragment complementation method; type: cell-based
# [22] = biological target: T1, G-protein coupled receptor 55; assay: Agonist activity at human GPR55 expressed in CHO cells assessed as induction of LPI-induced beta-arrestin recruitment by beta-galactosidase enzyme fragment complementation method; type: cell-based
# [23] = biological target: T6, G-protein coupled receptor 35 (Homo sapiens, UniProt Q9HC97); assay: Agonist activity at human GPR35 assessed as induction of beta-arrestin recruitment by beta-galactosidase enzyme fragment complementation method relative to zaprinast; design: concentration or dose not given beside the values
# [24] = biological target: T6, G-protein coupled receptor 35; assay: Agonist activity at human GPR35 assessed as induction of beta-arrestin recruitment by beta-galactosidase enzyme fragment complementation method
# [25] = biological target: T6, G-protein coupled receptor 35; assay: Antagonist activity at human GPR35 assessed as reduction of zaprinast-induced beta-arrestin recruitment by beta-galactosidase enzyme fragment complementation method relative to untreated control; design: concentration or dose not given beside the values; details: concentration not given here
# [26] = biological target: T6, G-protein coupled receptor 35; assay: Antagonist activity at human GPR35 assessed as reduction of zaprinast-induced beta-arrestin recruitment by beta-galactosidase enzyme fragment complementation method
# T1 sequence (Q9Y2T6 whole entry): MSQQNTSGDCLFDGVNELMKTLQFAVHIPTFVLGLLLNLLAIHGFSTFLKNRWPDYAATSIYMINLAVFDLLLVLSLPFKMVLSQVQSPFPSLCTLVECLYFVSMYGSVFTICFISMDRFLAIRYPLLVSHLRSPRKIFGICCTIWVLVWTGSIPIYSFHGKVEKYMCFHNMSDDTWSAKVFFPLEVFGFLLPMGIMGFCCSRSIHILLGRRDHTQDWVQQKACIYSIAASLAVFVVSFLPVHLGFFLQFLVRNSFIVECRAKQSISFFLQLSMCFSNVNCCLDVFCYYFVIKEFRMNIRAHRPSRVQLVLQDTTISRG
# T2 sequence (P34972 whole entry): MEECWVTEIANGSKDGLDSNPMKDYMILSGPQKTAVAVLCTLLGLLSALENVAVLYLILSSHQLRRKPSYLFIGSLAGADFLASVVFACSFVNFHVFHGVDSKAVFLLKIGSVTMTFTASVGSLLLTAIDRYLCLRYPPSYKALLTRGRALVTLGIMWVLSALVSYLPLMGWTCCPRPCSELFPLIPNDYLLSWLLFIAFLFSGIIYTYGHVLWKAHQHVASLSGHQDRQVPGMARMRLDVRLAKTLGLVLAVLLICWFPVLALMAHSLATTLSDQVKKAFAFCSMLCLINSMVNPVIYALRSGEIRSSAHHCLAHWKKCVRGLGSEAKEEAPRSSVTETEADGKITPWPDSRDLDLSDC
# T3 sequence (P21554 whole entry): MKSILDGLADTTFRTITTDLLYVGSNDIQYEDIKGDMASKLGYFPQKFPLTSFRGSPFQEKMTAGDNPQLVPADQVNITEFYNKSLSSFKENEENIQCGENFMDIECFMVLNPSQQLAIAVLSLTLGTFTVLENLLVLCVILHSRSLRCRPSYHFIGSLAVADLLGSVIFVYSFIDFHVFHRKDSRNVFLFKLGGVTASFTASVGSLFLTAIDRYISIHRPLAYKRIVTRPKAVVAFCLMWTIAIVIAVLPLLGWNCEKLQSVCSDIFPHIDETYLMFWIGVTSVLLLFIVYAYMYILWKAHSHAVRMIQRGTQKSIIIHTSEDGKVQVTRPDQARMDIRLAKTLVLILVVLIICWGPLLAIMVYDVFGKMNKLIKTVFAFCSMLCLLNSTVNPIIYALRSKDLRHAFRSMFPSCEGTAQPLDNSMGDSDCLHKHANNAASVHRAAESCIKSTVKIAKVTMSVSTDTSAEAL
# Chain of Cannabinoid receptor 1 (Rattus norvegicus) (P20272 whole entry): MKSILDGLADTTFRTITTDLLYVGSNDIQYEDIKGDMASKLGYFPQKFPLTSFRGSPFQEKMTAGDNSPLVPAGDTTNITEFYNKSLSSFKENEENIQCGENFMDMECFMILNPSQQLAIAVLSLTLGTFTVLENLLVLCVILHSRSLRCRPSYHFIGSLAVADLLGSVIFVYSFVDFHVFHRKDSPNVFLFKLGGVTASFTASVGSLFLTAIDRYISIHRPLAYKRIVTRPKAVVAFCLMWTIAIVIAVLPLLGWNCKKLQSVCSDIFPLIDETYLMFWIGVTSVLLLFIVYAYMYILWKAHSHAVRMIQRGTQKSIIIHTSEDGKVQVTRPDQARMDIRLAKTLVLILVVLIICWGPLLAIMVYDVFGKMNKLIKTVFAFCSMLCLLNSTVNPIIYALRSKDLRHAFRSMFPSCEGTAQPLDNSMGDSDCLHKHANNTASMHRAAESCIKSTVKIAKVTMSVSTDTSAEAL
# Chain of Cannabinoid receptor 1 (Rattus norvegicus, UniProt P20272) (P20272 whole entry, the tested form may be a part): as the sequence (P20272 whole entry) above
# T6 sequence (Q9HC97 whole entry, the tested form may be a part): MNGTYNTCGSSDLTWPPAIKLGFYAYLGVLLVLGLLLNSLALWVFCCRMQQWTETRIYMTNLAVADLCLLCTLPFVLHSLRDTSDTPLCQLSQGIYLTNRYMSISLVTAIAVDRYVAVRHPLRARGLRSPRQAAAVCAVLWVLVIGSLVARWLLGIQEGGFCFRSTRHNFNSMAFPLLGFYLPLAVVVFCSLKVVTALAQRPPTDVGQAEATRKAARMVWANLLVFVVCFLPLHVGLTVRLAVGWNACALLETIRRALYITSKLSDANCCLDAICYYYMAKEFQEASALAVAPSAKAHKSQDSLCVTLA
Structure (SMILES),Activity (Cannabinoid receptor 2 [3]),Activity (Cannabinoid receptor 1 [4]),inhibition [6] [%],inhibition (Cannabinoid receptor 2 [7]) [%],Activity [8] [%],Ki [9] [µM],IC50 [10] [µM],inhibition [11] [%],IC50 [12] [µM],Ki (Cannabinoid receptor 2 [13]) [µM],Activity [14] [%],inhibition [15] [%],inhibition (Cannabinoid receptor 1 [16]) [%],Ki (Cannabinoid receptor 1 [17]) [µM],Ki (Cannabinoid receptor 1 [18]) [µM],further results
Cc1c(C(=O)NN2CCOCC2)nn(-c2ccc(Cl)cc2Cl)c1-c1ccc(I)cc1,inactive,inactive,,,,,,,,,,,,,,EC50 [1]: 13.6 µM; Intrinsic activity [2]: -42%; Intrinsic activity (Cannabinoid receptor 1 [5]): -80%
O=C1/C(=C/c2cccc(Cl)c2)N=C2SCCCN12,,,6,2,9,10,> 10,14,≥ 10,> 10,0,42,30,> 10,> 10,inhibition (Rattus norvegicus): 57%
O=C1/C(=C/c2cccc(OCc3ccc(Cl)cc3Cl)c2)N=C2SCCCN12,inactive,inactive,,,12,> 10,2.55,,> 10,0.95,0,0,,2.09,0.55,Intrinsic activity [2]: -10%; Intrinsic activity (Cannabinoid receptor 1 [5]): -51%
O=C1/C(=C/c2ccc(F)cc2F)N=C2SCCCN12,,,,0,0,> 10,> 10,6,3.46,> 10,11,,13,> 10,,inhibition [19]: Active; Allosteric antagonist activity [20]: Active; inhibition (Rattus norvegicus): 34%
CCCCCCC(C)(C)c1ccc([C@@H]2C[C@H](O)CC[C@H]2CCCO)c(O)c1 [CP-55940],Active,Active,,,,,,,,,,,,,,EC50 [21]: 5.99 µM; EC50 [22]: 1.61 µM
O=C1/C(=C/c2ccccc2Cl)N=C2SCCCN12,,,5,21,27,4.15,> 10,6,5.09,> 10,20,,0,> 10,> 10,Activity [23]: -22%; EC50 [24]: > 10 µM; inhibition [25]: 49%; Allosteric antagonist activity [20]: Active; IC50 [26]: ≥ 10 µM
O=C1/C(=C/c2ccccc2)N=C2SCCCN12,,,1,18,32,,> 10,5,> 10,> 10,7,25,40,> 10,> 10,Activity [23]: -5%; EC50 [24]: > 10 µM; inhibition [25]: 12%; IC50 [26]: > 10 µM
CCCCC/C=C\C/C=C\C/C=C\C/C=C\CCCC(=O)O[C@H](CO)COP(=O)(O)O[C@@H]1[C@@H](O)[C@H](O)[C@@H](O)[C@H](O)[C@@H]1O,,,,0,,,> 10,15,,> 10,,,0,> 10,,EC50 [22]: 1 µM
Cc1c(C(=O)NN2CCCCC2)nn(-c2ccc(Cl)cc2Cl)c1-c1ccc(I)cc1,,,,,,,,,,,,,,,,EC50 [1]: 0.63 µM
